Like-named read-outs stand apart in the source and are kept apart here.
Columns and labels:
[1] = target: T1, CviR (Chromobacterium violaceum, UniProt D3W065); details: for maximal gfp expression level compared with C6-HSL / EC50: E. coli vioA-gfp; for EC50: read-out: EC50, CviR activation of gfp expression; for induction of gfp expression through CviR: even at 100 μM
[2] = target: T1, CviR; format: cell-based; details: read-out: IC50, inhibition of CviR-dependent vioA-gfp expression; constant 500 nM C6-HSL
[3] = test system: CviR; details: molecule added at 50 μM, E. coli
[4] = test system: CviR binding to the vioA promoter; design: species or system Chromobacterium violaceum; details: for DNA binding of purified CviR loaded with the molecule: vioA promoter probe, CviR 100-500 nM
[5] = target: V. harveyi LuxN (Vibrio campbellii, UniProt A7MRY4); format: cell-based; details: read-out: IC50, inhibition of bioluminescence
[6] = test system: C. violaceum killing of C. elegans; assay: C. elegans lifespan assay on C. violaceum lawns; format: in vivo, Caenorhabditis elegans
[7] = V. harveyi BB960 (luxPQ mutant)

V. harveyi LuxN, sequence (A7MRY4 whole entry): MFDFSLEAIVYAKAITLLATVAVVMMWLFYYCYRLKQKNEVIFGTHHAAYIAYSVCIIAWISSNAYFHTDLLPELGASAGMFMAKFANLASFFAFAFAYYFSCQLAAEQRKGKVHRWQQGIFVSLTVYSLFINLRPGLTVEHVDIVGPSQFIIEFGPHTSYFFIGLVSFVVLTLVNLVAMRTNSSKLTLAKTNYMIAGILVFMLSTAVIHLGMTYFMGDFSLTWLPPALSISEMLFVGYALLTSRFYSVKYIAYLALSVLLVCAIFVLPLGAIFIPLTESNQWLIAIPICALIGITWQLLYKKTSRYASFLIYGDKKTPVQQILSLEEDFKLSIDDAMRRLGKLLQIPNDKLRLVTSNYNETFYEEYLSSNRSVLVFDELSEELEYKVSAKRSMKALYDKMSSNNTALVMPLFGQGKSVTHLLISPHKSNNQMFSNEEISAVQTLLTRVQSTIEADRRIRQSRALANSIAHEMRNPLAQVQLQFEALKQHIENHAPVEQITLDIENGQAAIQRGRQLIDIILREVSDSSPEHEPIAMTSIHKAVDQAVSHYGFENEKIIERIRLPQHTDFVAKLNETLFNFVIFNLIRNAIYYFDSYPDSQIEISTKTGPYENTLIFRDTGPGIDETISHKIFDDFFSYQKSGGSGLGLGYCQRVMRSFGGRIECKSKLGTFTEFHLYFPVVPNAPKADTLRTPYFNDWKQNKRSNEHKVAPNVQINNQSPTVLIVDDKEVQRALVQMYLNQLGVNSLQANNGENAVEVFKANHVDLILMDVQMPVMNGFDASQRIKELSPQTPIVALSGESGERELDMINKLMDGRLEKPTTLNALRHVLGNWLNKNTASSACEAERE
T1 sequence (D3W065 1-265): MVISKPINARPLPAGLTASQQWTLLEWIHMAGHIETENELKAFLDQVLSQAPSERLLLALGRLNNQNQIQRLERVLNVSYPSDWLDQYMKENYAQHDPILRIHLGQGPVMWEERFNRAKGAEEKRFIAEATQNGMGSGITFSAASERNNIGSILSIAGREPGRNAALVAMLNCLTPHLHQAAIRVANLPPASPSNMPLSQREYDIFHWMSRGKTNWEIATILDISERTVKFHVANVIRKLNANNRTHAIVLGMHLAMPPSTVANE

CCCC(=O)N[C@H]1CCOC1=O [C4-HSL]
maximal gfp expression level compared with C6-HSL [1]: can induce maximal gfp expression | EC50 [1]: 12000 nM

Chlorolactone [CL]
IC50 [2]: 377 nM | CviR folding and solubility when expressed in presence of molecule [3]: promoted CviR folding and solubility | DNA binding of C6-HSL loaded CviR on addition of antagonist ([4]; 500 nM CviR, antagonist 0-10 μM): DNA binding decreased in a dose dependent manner | DNA binding of purified CviR loaded with the molecule [4]: no ability to bind DNA | IC50 [5, 7]: 14000 nM | IC50 ([5]; V. harveyi JMH624 + 20 nM AHL): 873 nM | IC50 ([5]; wild type V. harveyi BB120): 40000 nM | C. elegans median lifespan ([6]; wild type C. violaceum, CL 20 μM, two days without antagonist): seven

CCCCCC(=O)N[C@H]1CCOC1=O [C6-HSL]
EC50 [1]: 75 nM | DNA probe shift of CL loaded CviR on addition of C6-HSL ([4]; 500 nM CviR, 1 μM C6-HSL): modest shift of the DNA probe | DNA binding of purified CviR loaded with the molecule [4]: binds DNA with high affinity | C. elegans median lifespan ([6]; C. violaceum cviI mutant, C6-HSL 2 μM): 4 days

CCCCCCCCCC(=O)N[C@H]1CCOC1=O [C10-HSL]
induction of gfp expression through CviR [1]: do not induce gfp expression | IC50 [2]: 208 nM | DNA binding of purified CviR loaded with the molecule [4]: does not abolish DNA binding

Chloro-thiolactone [CTL]
IC50 [2]: 1100 nM | CviR folding and solubility when expressed in presence of molecule [3]: promoted CviR folding and solubility | DNA binding of purified CviR loaded with the molecule [4]: no ability to bind DNA | IC50 [5, 7]: 28000 nM | IC50 ([5]; wild type V. harveyi BB120): 150000 nM

CCCCCCCC(=O)N[C@H]1CCOC1=O [C8-HSL]
maximal gfp expression level compared with C6-HSL [1]: only half of the maximal gfp expression | EC50 [1]: 30 nM | DNA binding of purified CviR loaded with the molecule [4]: bound DNA with similar affinity to CviR loaded with C6-HSL

CCCCCCCCCCCCCC(=O)N[C@H]1CCOC1=O [C14-HSL]
induction of gfp expression through CviR [1]: do not induce gfp expression | IC50 [2]: 268 nM | DNA binding of purified CviR loaded with the molecule [4]: no ability to bind DNA

CCCCCCCCCCCC(=O)N[C@H]1CCOC1=O [C12-HSL]
induction of gfp expression through CviR [1]: do not induce gfp expression | IC50 [2]: 494 nM | DNA binding of purified CviR loaded with the molecule [4]: no ability to bind DNA
